Test results published in PMC7247319, “The mitochondria-targeted peptide SS-31 binds lipid bilayers and modulates surface electrostatics as a key component of its mechanism of action” (The Journal of Biological Chemistry, 2020).
Where a SMILES comes first, the peptide text is derived from it. [ ]: non-standard residue; d: D form. Dmt = Cc1cc(O)cc(C)c1C[C@H](N)C(=O)O

Tested on: LUVs containing 20% TOCL or POPG in POPC background
Experiment: Fluorescent reporters of lipid dynamics and packing (DPH anisotropy, laurdan and prodan GP)
Experimental: Figure 4. Effects of SS-31 on structural properties of model membranes. […] LUVs composed of 20% anionic lipid (TOCL, MLCL, or POPG) in POPC background were measured in the absence or presence of peptide ([SS-31]/[lipid]^eff = 1:5) as indicated. A, synchrotron SAXS measurements showing background-subtracted scattering density profiles for LUVs in the absence (black) or presence (red) of SS-31. B, ^31P solid-state NMR spectra of LUVs in the absence (bottom spectra) or presence (top spectra) of SS-31. C, SS-31 alters lipid packing interactions. Shown are changes in laurdan and prodan GP values (ΔGP) with increasing [SS-31] for LUVs containing 20% TOCL or POPG in POPC background as indicated. Data and fits in gray show SS-31 fractional saturation (calculated from Fig. 2A, [lipid]^eff = 25 μM). […]
We therefore addressed whether SS-31 altered lipid interactions within these model bilayers. […] Using 1,6-diphenyl-1,3,5-hexatriene (DPH) anisotropy (〈r〉^DPH) as a readout of the fluid dynamics of hydrocarbon tails, we observed no effect of SS-31 in TOCL- or POPG-containing membranes (Fig. S10, D and E). […]
Steady-state fluorescence measurements were performed with a Fluorolog 3-22 spectrofluorometer (HORIBA Jobin-Yvon) equipped with photon-counting electronics, double-grating excitation and emission monochromators, automated Glan–Thompson polarizers, and a 450-watt xenon lamp. […]

Cc1cc(O)cc(C)c1C[C@H](NC(=O)[C@H](N)CCCNC(=N)N)C(=O)N[C@@H](CCCCN)C(=O)N[C@@H](Cc1ccccc1)C(N)=O [SS-31, D-Arg-2′6′-dimethyl-Tyr-Lys-Phe-NH2] (H-[dR][Dmt]KF-NH2)
effect on DPH anisotropy (fluid dynamics of hydrocarbon tails) (TOCL- or POPG-containing membranes): no effect
effect on laurdan and prodan generalized polarization (GP^LAU, GP^PRO) (increasing [SS-31], 20% TOCL or POPG LUVs, n = 3): modest, yet repeatable and saturable, increases
